Reference: ChEMBL document CHEMBL1136571, “Design, synthesis and structure-activity relationships of benzoxazinone-based factor Xa inhibitors” (Bioorg Med Chem Lett, 2003)

What was measured:
Anionic trypsin-2 = target: T1, Anionic trypsin-2 (Rattus norvegicus, UniProt P00763); assay: Inhibitory concentration against trypsin
T1 sequence (P00763 whole entry): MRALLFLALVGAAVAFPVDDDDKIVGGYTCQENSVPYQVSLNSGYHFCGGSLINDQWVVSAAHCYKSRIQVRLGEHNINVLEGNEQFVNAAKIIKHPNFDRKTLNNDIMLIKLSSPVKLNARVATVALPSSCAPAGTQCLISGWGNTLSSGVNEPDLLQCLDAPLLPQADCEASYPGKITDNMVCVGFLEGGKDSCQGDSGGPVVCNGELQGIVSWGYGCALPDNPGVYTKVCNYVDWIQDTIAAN

Coagulation factor X = Coagulation factor X (Homo sapiens, UniProt P00742); assay: Inhibitory concentration to factor Xa
Chain of Coagulation factor X (P00742 41-179 limits assumed): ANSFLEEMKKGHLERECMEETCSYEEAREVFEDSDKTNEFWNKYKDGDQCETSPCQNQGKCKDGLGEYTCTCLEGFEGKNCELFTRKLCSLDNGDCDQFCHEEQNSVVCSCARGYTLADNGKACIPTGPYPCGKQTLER
Chain of Coagulation factor X (P00742 235-488 limits assumed): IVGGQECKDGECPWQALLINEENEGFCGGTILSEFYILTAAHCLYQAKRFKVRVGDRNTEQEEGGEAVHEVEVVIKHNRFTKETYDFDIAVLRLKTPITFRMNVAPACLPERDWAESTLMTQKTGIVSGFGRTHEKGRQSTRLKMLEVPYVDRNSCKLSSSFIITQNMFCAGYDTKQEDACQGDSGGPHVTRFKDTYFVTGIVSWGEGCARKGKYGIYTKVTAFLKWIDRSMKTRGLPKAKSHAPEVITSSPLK

Prothrombin [1] = target: T2, Prothrombin (Homo sapiens, UniProt P00734)
[2] = Half-life period in rabbits following intravenous administration at 2 mg/kg; assay type: ADME, organism-based, Oryctolagus cuniculus; parameters: dose 2 mg/kg, route intravenous; conditions: rabbit, in vivo
[3] = Bioavailability in rat at an oral dose of 2 mg/kg; assay type: ADME, organism-based; conditions: in vivo
[4] = Half-life period in rats following intravenous administration at 2 mg/kg; assay type: ADME, organism-based; parameters: dose 2 mg/kg, route intravenous; conditions: rat, in vivo
Oryctolagus cuniculus [5] = assay: Plasma concentration at the dose of 100 ug/kg in rabbit; assay type: functional, organism-based
Prothrombin [6] = target: T2, Prothrombin; assay: Inhibitory concentration against factor IIa
Oryctolagus cuniculus [7] = assay: Percent inhibition of thrombosis at the dose of 100 ug/kg in rabbit deep vein thrombosis model; assay type: functional
Oryctolagus cuniculus [8] = assay: Percent inhibition of thrombosis at the dose of 25 ug/kg in rabbit deep vein thrombosis model; assay type: functional; conditions: at 25 µg/kg
Oryctolagus cuniculus [9] = assay: Percent inhibition of thrombosis at the dose of 50 ug/kg in rabbit deep vein thrombosis model; assay type: functional

SMILES | IC50 (Anionic trypsin-2) [nM] | IC50 (Coagulation factor X) [nM] | IC50 (Prothrombin [1]) [nM] | also measured
CC(=N)N1CCC(Oc2ccc(N(Cc3cc(-c4cccc(C(=N)N)c4)no3)S(C)(=O)=O)cc2)CC1 | > 10000 | 14 | > 10000 | –
CC(=N)N1CCC(Oc2ccc(N(Cc3cc4cc(C(=N)N)ccc4n3C)S(C)(=O)=O)cc2)CC1 | 167 | 31 | > 10000 | –
CC(=N)N1CCN(C(=O)c2ccc(N(Cc3ccc4ccc(C(=N)N)cc4c3)S(C)(=O)=O)cc2)CC1 | – | 1570 | – | –
CC(=N)N1CCC(Oc2ccc3c(c2)OCC(=O)N3Cc2cc3ccc(C(=N)N)cc3n2C)CC1 | 76 | – | – | –
CS(=O)(=O)N(Cc1ccc2ccc(C(=N)N)cc2c1)c1ccc(-c2ccccc2S(N)(=O)=O)cc1 | – | 153 | – | –
CCn1c(CN2C(=O)COc3cc(OC4CCN(C(C)=N)CC4)ccc32)cc2ccc(C(=N)N)cc21 | 58 | 2 | – | –
CC(=N)N1CCC(Oc2ccc3c(c2)OCC(=O)N3Cc2ccc3ccc(C(=N)N)cc3c2)CC1 | 28 | – | – | half-life [2]: 54 min; bioavailability [3]: 4.6%; half-life [4]: 30 min; Concentration (Oryctolagus cuniculus [5]): 200 nM; IC50 (Prothrombin [6]): > 10000 nM; inhibition in vivo at 0.1 mg/kg (Oryctolagus cuniculus [7]): 99%; inhibition in vivo at 0.025 mg/kg (Oryctolagus cuniculus [8]): 7%; inhibition in vivo at 0.05 mg/kg (Oryctolagus cuniculus [9]): 44%
CC(=N)N1CCC(Oc2ccc(N(Cc3ccc(-c4cccc(C(=N)N)c4)cc3)S(C)(=O)=O)cc2)CC1 | 769 | – | > 10000 | –
Cc1cc(CN(c2ccc(-c3ccccc3S(N)(=O)=O)cc2)S(C)(=O)=O)n(-c2cccc(C(=N)N)c2)n1 | – | 500 | – | –
CC(=N)N1CCC(Oc2ccc3c(c2)OCC(=O)N3Cc2cc(-c3cccc(C(=N)N)c3)no2)CC1 | 250000 | – | > 10000 | –
CC(=N)N1CCC(Oc2ccc(N(Cc3cc4cc(C(=N)N)ccc4s3)S(=O)(=O)CC(=O)O)cc2)CC1 | 63 | 3 | – | –
CC(=N)N1CCC(Oc2ccc(N(Cc3ccc4ccc(C(=N)N)cc4c3)S(=O)(=O)CC(=O)O)cc2)CC1 [YM-60828] | 63 | – | – | –
CC(=N)N1CCC(Oc2ccc(N(Cc3ccccc3-c3ccc(C(=N)N)cc3)S(C)(=O)=O)cc2)CC1 | > 10000 | > 10000 | > 10000 | –
Cc1cc(CN(c2ccc(-c3ccccc3S(N)(=O)=O)cc2)S(C)(=O)=O)nn1-c1cccc(C(=N)N)c1 | – | 3930 | – | –
CC(=N)N1CCC(Oc2ccc(N(Cc3cccc(-c4cccc(C(=N)N)c4)c3)S(C)(=O)=O)cc2)CC1 | 360 | – | > 10000 | –
CC(=N)N1CCC(Oc2ccc3c(c2)OCC(=O)N3Cc2cccc(-c3cccc(C(=N)N)c3)c2)CC1 | 143 | – | > 10000 | –
CC(=N)N1CCC(Oc2ccc(N(Cc3cc4cc(C(=N)N)ccc4s3)S(C)(=O)=O)cc2)CC1 | 21 | – | > 10000 | –
CC(=N)N1CCC(Oc2ccc(N(Cc3cc4ccc(C(=N)N)cc4n3C)S(C)(=O)=O)cc2)CC1 | 25 | 0.8 | > 10000 | –
CCOC(=O)CS(=O)(=O)N(Cc1cc2cc(C(=N)N)ccc2s1)c1ccc(OC2CCN(C(C)=N)CC2)cc1 | 86 | – | – | –
CCOC(=O)CS(=O)(=O)N(Cc1ccc2ccc(C(=N)N)cc2c1)c1ccc(OC2CCN(C(C)=N)CC2)cc1 | 83 | 6 | – | –
CC(=N)N1CCC(Oc2ccc(N(Cc3cc(C)n(-c4cccc(C(=N)N)c4)n3)S(C)(=O)=O)cc2)CC1 | 2110 | – | > 10000 | –
CS(=O)(=O)N(Cc1cccc(-c2cccc(C(=N)N)c2)c1)c1ccc(-c2ccccc2S(N)(=O)=O)cc1 | – | 191 | – | –
CC(=N)N1CCC(Oc2ccc(N(Cc3cc(C)nn3-c3cccc(C(=N)N)c3)S(C)(=O)=O)cc2)CC1 | > 10000 | – | > 10000 | –
CCOC(=O)CS(=O)(=O)N(Cc1cccc(-c2cccc(C(=N)N)c2)c1)c1ccc(OC2CCN(C(C)=N)CC2)cc1 | 292 | 7 | – | –
CC(=N)N1CCC(Oc2ccc(N(Cc3ccc4ccc(C(=N)N)cc4c3)S(C)(=O)=O)cc2)CC1 | 94 | 6 | > 10000 | –
CC(=N)N1CCC(Oc2ccc(N(Cc3ccccc3-c3cccc(C(=N)N)c3)S(C)(=O)=O)cc2)CC1 | > 10000 | 7000 | > 10000 | –
CC(=N)N1CCC(Oc2ccc(N(Cc3cccc(-c4cccc(C(=N)N)c4)c3)S(=O)(=O)CC(=O)O)cc2)CC1 | 269 | 3 | – | –
